Measured values reported in the supplement of paper PMC10307832.

Columns and labels:
Assay in all cases: relative viability (nuclei count vs DMSO), 5 days (fraction); higher = more cells survive
NCI-H1648 = system: NCI-H1648
Summary of the method: (§1)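 Lung cancer cell lines, seeded in 1536-well plates, were treated the following day by pin tool with a single drug or with five library-drug doses (not always all listed) in √10 steps on top of a fixed anchor-drug dose. Cells were fixed and nuclei stained in one step after 5 days, and nuclei were counted. Relative viability is the nuclei count for treated wells divided by that for vehicle wells, reported as medians of duplicate plates.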

NCI-H2009 = system: NCI-H2009
Summary of the method: as §1

NCI-H460 = system: NCI-H460
Summary of the method: as §1

NCI-H522 = system: NCI-H522
Summary of the method: as §1

NCI-H661 = system: NCI-H661
Summary of the method: as §1

A549 = system: A549
Summary of the method: as §1

Calu-6 = system: Calu-6
Summary of the method: as §1

EBC-1 = system: EBC-1
Summary of the method: as §1

IA-LM = system: IA-LM
Summary of the method: as §1

NCI-H1299 = system: NCI-H1299
Summary of the method: as §1

NCI-H1703 = system: NCI-H1703
Summary of the method: as §1

## NC(=O)Nc1cc(-c2cccc(F)c2)sc1C(=O)N[C@H]1CCCNC1 [AZD7762] + Nc1nc2[nH]cc(CCc3ccc(C(=O)N[C@@H](CCC(=O)O)C(=O)O)cc3)c2c(=O)[nH]1 [Pemetrexed] (partner 0.2 µM)
NCI-H1648; first compound 0.01 µM
  relative viability: 0.644
NCI-H1648; first compound 0.03162 µM
  relative viability: 0.646
NCI-H1648; first compound 0.1 µM
  relative viability: 0.704
NCI-H1648; first compound 0.3162 µM
  relative viability: 0.553
NCI-H1648; first compound 1 µM
  relative viability: 0.631
NCI-H2009; first compound 0.01 µM
  relative viability: 1
NCI-H2009; first compound 0.03162 µM
  relative viability: 1.02
NCI-H2009; first compound 0.1 µM
  relative viability: 1.03
NCI-H2009; first compound 0.3162 µM
  relative viability: 0.888
NCI-H2009; first compound 1 µM
  relative viability: 0.783
NCI-H460; first compound 0.01 µM
  relative viability: 0.0576
NCI-H460; first compound 0.03162 µM
  relative viability: 0.0605
NCI-H460; first compound 0.1 µM
  relative viability: 0.0567
NCI-H460; first compound 0.3162 µM
  relative viability: 0.0462
NCI-H460; first compound 1 µM
  relative viability: 0.0366
NCI-H522; first compound 0.01 µM
  relative viability: 1.03
NCI-H522; first compound 0.03162 µM
  relative viability: 1.05
NCI-H522; first compound 0.1 µM
  relative viability: 0.862
NCI-H522; first compound 0.3162 µM
  relative viability: 0.943
NCI-H522; first compound 1 µM
  relative viability: 0.791
NCI-H661; first compound 0.01 µM
  relative viability: 0.935
NCI-H661; first compound 0.03162 µM
  relative viability: 0.739
NCI-H661; first compound 0.1 µM
  relative viability: 0.597
NCI-H661; first compound 0.3162 µM
  relative viability: 0.49
NCI-H661; first compound 1 µM
  relative viability: 0.426

## CC1(C)CCC(c2ccc(Cl)cc2)=C(CN2CCN(c3ccc(C(=O)NS(=O)(=O)c4ccc(N[C@H](CCN5CCOCC5)CSc5ccccc5)c(S(=O)(=O)C(F)(F)F)c4)cc3)CC2)C1 [Navitoclax] + CC(=O)Nc1cccc(-n2c(=O)n(C3CC3)c(=O)c3c(Nc4ccc(I)cc4F)n(C)c(=O)c(C)c32)c1 [Trametinib] (partner 0.02 µM)
NCI-H1648; first compound 0.005 µM
  relative viability: 0.541
NCI-H1648; first compound 0.01581 µM
  relative viability: 0.427
NCI-H1648; first compound 0.1581 µM
  relative viability: 0.453
NCI-H1648; first compound 0.5 µM
  relative viability: 0.402
NCI-H2009; first compound 0.005 µM
  relative viability: 0.324
NCI-H2009; first compound 0.01581 µM
  relative viability: 0.355
NCI-H2009; first compound 0.05 µM
  relative viability: 0.322
NCI-H2009; first compound 0.1581 µM
  relative viability: 0.303
NCI-H2009; first compound 0.5 µM
  relative viability: 0.308
NCI-H460; first compound 0.005 µM
  relative viability: 0.135
NCI-H460; first compound 0.01581 µM
  relative viability: 0.237
NCI-H460; first compound 0.05 µM
  relative viability: 0.153
NCI-H460; first compound 0.1581 µM
  relative viability: 0.188
NCI-H460; first compound 0.5 µM
  relative viability: 0.215
NCI-H522; first compound 0.005 µM
  relative viability: 0.753
NCI-H522; first compound 0.01581 µM
  relative viability: 0.782
NCI-H522; first compound 0.05 µM
  relative viability: 0.778
NCI-H522; first compound 0.1581 µM
  relative viability: 0.627
NCI-H522; first compound 0.5 µM
  relative viability: 0.725
NCI-H661; first compound 0.005 µM
  relative viability: 0.516
NCI-H661; first compound 0.01581 µM
  relative viability: 0.702
NCI-H661; first compound 0.05 µM
  relative viability: 0.551
NCI-H661; first compound 0.1581 µM
  relative viability: 0.533
NCI-H661; first compound 0.5 µM
  relative viability: 0.538

## Oc1nc(-c2ccc(C(F)(F)F)cc2)nc2c1CSCC2 [XAV939] + CS(=O)(=O)N1CCN(Cc2cc3nc(-c4cccc5[nH]ncc45)nc(N4CCOCC4)c3s2)CC1 [Pictilisib] (partner 1 µM)
A549; first compound 0.08 µM
  relative viability: 0.629
A549; first compound 0.253 µM
  relative viability: 0.491
A549; first compound 0.8 µM
  relative viability: 0.372
A549; first compound 2.53 µM
  relative viability: 0.296
Calu-6; first compound 0.08 µM
  relative viability: 1.09
Calu-6; first compound 0.253 µM
  relative viability: 0.843
Calu-6; first compound 0.8 µM
  relative viability: 0.972
Calu-6; first compound 2.53 µM
  relative viability: 0.841
EBC-1; first compound 0.08 µM
  relative viability: 0.437
EBC-1; first compound 0.253 µM
  relative viability: 0.346
EBC-1; first compound 0.8 µM
  relative viability: 0.329
EBC-1; first compound 2.53 µM
  relative viability: 0.261
IA-LM; first compound 0.08 µM
  relative viability: 0.449
IA-LM; first compound 0.253 µM
  relative viability: 0.317
IA-LM; first compound 0.8 µM
  relative viability: 0.245
IA-LM; first compound 2.53 µM
  relative viability: 0.17
NCI-H1299; first compound 0.08 µM
  relative viability: 0.857
NCI-H1299; first compound 0.253 µM
  relative viability: 0.701
NCI-H1299; first compound 0.8 µM
  relative viability: 0.642
NCI-H1299; first compound 2.53 µM
  relative viability: 0.511
NCI-H1703; first compound 0.08 µM
  relative viability: 0.275
NCI-H1703; first compound 0.253 µM
  relative viability: 0.243
NCI-H1703; first compound 0.8 µM
  relative viability: 0.258
NCI-H1703; first compound 2.53 µM
  relative viability: 0.241
NCI-H2009; first compound 0.08 µM
  relative viability: 0.878
NCI-H2009; first compound 0.253 µM
  relative viability: 0.718
NCI-H2009; first compound 0.8 µM
  relative viability: 0.67
NCI-H2009; first compound 2.53 µM
  relative viability: 0.511
NCI-H460; first compound 0.08 µM
  relative viability: 0.362
NCI-H460; first compound 0.253 µM
  relative viability: 0.332
NCI-H460; first compound 0.8 µM
  relative viability: 0.284
NCI-H460; first compound 2.53 µM
  relative viability: 0.334
NCI-H661; first compound 0.08 µM
  relative viability: 0.477
NCI-H661; first compound 0.253 µM
  relative viability: 0.378
NCI-H661; first compound 0.8 µM
  relative viability: 0.329
NCI-H661; first compound 2.53 µM
  relative viability: 0.267

## Oc1nc(-c2ccc(C(F)(F)F)cc2)nc2c1CSCC2 [XAV939] + CS(=O)(=O)CCNCc1ccc(-c2ccc3ncnc(Nc4ccc(OCc5cccc(F)c5)c(Cl)c4)c3c2)o1 [Lapatinib] (partner 2 µM)
A549; first compound 0.08 µM
  relative viability: 1.1
A549; first compound 0.253 µM
  relative viability: 0.985
A549; first compound 0.8 µM
  relative viability: 0.897
A549; first compound 2.53 µM
  relative viability: 0.765
Calu-6; first compound 0.08 µM
  relative viability: 1.08
Calu-6; first compound 0.253 µM
  relative viability: 0.945
Calu-6; first compound 0.8 µM
  relative viability: 0.991
Calu-6; first compound 2.53 µM
  relative viability: 0.903
EBC-1; first compound 0.08 µM
  relative viability: 0.206
EBC-1; first compound 0.253 µM
  relative viability: 0.205
EBC-1; first compound 0.8 µM
  relative viability: 0.218
EBC-1; first compound 2.53 µM
  relative viability: 0.209
IA-LM; first compound 0.08 µM
  relative viability: 0.901
IA-LM; first compound 0.253 µM
  relative viability: 0.64
IA-LM; first compound 0.8 µM
  relative viability: 0.687
IA-LM; first compound 2.53 µM
  relative viability: 0.483
NCI-H1299; first compound 0.08 µM
  relative viability: 0.989
NCI-H1299; first compound 0.253 µM
  relative viability: 1.01
NCI-H1299; first compound 0.8 µM
  relative viability: 0.962
NCI-H1299; first compound 2.53 µM
  relative viability: 0.97
NCI-H1703; first compound 0.08 µM
  relative viability: 1.21
NCI-H1703; first compound 0.253 µM
  relative viability: 1.08
NCI-H1703; first compound 0.8 µM
  relative viability: 1.15
NCI-H1703; first compound 2.53 µM
  relative viability: 0.959
NCI-H2009; first compound 0.08 µM
  relative viability: 1.08
NCI-H2009; first compound 0.253 µM
  relative viability: 0.819
NCI-H2009; first compound 0.8 µM
  relative viability: 0.842
NCI-H2009; first compound 2.53 µM
  relative viability: 0.771
NCI-H460; first compound 0.08 µM
  relative viability: 1.38
NCI-H460; first compound 0.253 µM
  relative viability: 0.723
NCI-H460; first compound 0.8 µM
  relative viability: 0.91
NCI-H460; first compound 2.53 µM
  relative viability: 0.937
NCI-H661; first compound 0.08 µM
  relative viability: 0.553
NCI-H661; first compound 0.253 µM
  relative viability: 0.482
NCI-H661; first compound 0.8 µM
  relative viability: 0.595
NCI-H661; first compound 2.53 µM
  relative viability: 0.372
